Results reported in US10130715B2 (priority 2013, dated 2018).
Read-outs that look alike come from different tables or passages of the source.

What was measured:
individuals = conditions: human, in vivo
From the text: A minimum clinically significant difference in VAS rating for pain or paraesthesia appears to range from 13 mm to 16 mm with a 95% confidence interval. (See e.g., Gallagher, et al., Am J Emerg Med. 2002; 20(4):287-90; Bouhassira, et al., Pain. 2004; 108(3):248-57; Poliakov, et al. Eur J Pain. 2011 November; 15(10):1015-22; and Eisenberg, et al. Eur J Pain. 1998; 2(4):321-327). VAS rating instruments have also been deemed specific and sensitive to detect the effects of an intervention on paraesthesia and neuropathic pain.

[1] = Pilot study: plasma β-alanine and net retention after oral ingestion (GC-MS); assay type: in vivo, human
Protocol: Each subject completed three trials, labeled “A”, “B”, and “C” using a Latin square design (i.e. subject 1 completed trials in ABC order, subject 2 completed trials in BCA order, and subject 3 completed trials in CAB order). […] Blood samples were drawn into lithium heparin tubes at baseline (time 0), 30 min, 1 hr, 2 hr, 3 hr, 4 hr post ingestion, spun in a clinical centrifuge for 15 minutes, and processed to obtain plasma.

[2] = cited from earlier work

## NCCC(=O)O [β-alanine, 3-Aminopropanoic acid]
individuals
  anchored 100 mm VAS scores for paraesthesia: 60 mm-90 mm
[1]; Mean (SD) of 3 subjects
  Net Loss (uMol), Mean (SD): 9174.5 (862.96) uMol
[1]; Subject 1, 0-4 hr collection
  Net Loss: 10167.5 µmol
[1]; Subject 2, 0-4 hr collection
  Net Loss: 8606.6 µmol
[1]; Subject 3, 0-4 hr collection
  Net Loss: 8749.3 µmol
[2]; oral doses of 40 mg/kg or higher
  severity of paraesthesia: moderate-to-severe
[2]; oral doses of 40 mg/kg
  severity of paraesthesia: severe
[2]; oral, 10 mg/kg
  severity of paraesthesia: relatively mild
